# In patent US20190053492A1, “SUBSTITUTED PYRIDINE COMPOUNDS AS PESTICIDES” (Bayer CropScience Aktiengesellschaft, priority 2016, published 2019):
# Read-outs that look alike come from different tables or passages of the source.
# Experiments:
# Ctenocephalides felis [1] = assay: Ctenocephalides felis in vitro contact test with adult cat fleas; format: in vivo; settings: application rate 5 μg/cm^2 (500 g/ha), after 48 h
# Description: Ctenocephalides felis—In Vitro Contact Tests with Adult Cat Fleas
# For the coating of the test tubes, 9 mg of active ingredient are first dissolved in 1 ml of acetone p.a. and then diluted to the desired concentration with acetone p.a. 250 μl of the solution are distributed homogeneously on the inner walls and the base of a 25 ml glass tube by turning and rocking on an orbital shaker (rocking rotation at 30 rpm for 2 h). With 900 ppm of active ingredient solution and internal surface area 44.7 cm^2, given homogeneous distribution, an area-based dose of 5 μg/cm^2 is achieved.
# After the solvent has evaporated off, the tubes are populated with 5-10 adult cat fleas (Ctenocephalides felis), sealed with a perforated plastic lid and incubated in a horizontal position at room temperature and ambient humidity. After 48 h, efficacy is determined. To this end, the tubes are stood upright and the fleas are knocked to the base of the tube. Fleas which remain motionless at the base or move in an uncoordinated manner are considered to be dead or moribund.
# 100% efficacy means that all the fleas were dead or moribund. 0% efficacy means that no fleas were harmed.
# Spodoptera frugiperda = Spodoptera frugiperda spray test; format: in vivo; settings: after 7 days, maize leaf discs
# Summary of the method: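 Maize leaf discs were sprayed with compound formulated in acetone/DMF and emulsifier-containing water, dried, then infested with Spodoptera frugiperda caterpillars. Percent kill was scored after 7 days, from 100% (all dead) to 0% (none dead).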
# Phaedon cochleariae = Phaedon cochleariae spray test; format: in vivo; settings: after 7 days, Chinese cabbage leaf discs
# Summary of the method: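 Chinese cabbage leaf discs sprayed with compound in acetone/DMF and emulsifier-containing water, then infested with mustard beetle larvae once dry. Efficacy in % scored after 7 days (100% = all larvae killed, 0% = none).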
# [2] = log P by HPLC on reversed-phase column (C 18), EEC Directive 79/831 Annex V.A8; format: physicochemical; settings: 55° C.; for LOGP_HCOOH: log P (HCOOH); for chromatographic logP: reversed-phase HPLC column (C 18)
# Description: Temperature: 55° C. […] Called log P (HCOOH) in the table. […] Called log P (neutral) in the table.
# Musca domestica = Musca domestica test; format: in vivo; settings: after 2 days, adult houseflies
# Description: Musca domestica Test Solvent: dimethyl sulphoxide To produce a suitable active ingredient formulation, 10 mg of active ingredient are mixed with 0.5 ml of dimethyl sulphoxide, and the concentrate is diluted with water to the desired concentration. Vessels containing a sponge treated with sugar solution and the active ingredient formulation of the desired concentration are populated with 10 adult houseflies (Musca domestica). After 2 days, the kill in % is determined. 100% means that all of the flies have been killed; 0% means that none of the flies have been killed.
# Lucilia cuprina = Lucilia cuprina test; format: in vivo; settings: application rate 100 ppm, after 2 days, L1 larvae
# Summary of the method: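 Active ingredient dissolved in DMSO and diluted with water to the test concentration. About 20 first-instar sheep blowfly larvae placed on minced horsemeat containing the formulation; percentage of larvae killed scored after 2 days.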
# Ctenocephalides felis [3] = assay: Ctenocephalides felis oral test; format: in vivo; settings: application rate 100 ppm in citrated cattle blood, after 2 days, adult cat fleas
# Summary of the method: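 About 20 unfed adult cat fleas fed through a parafilm membrane on citrated cattle blood dosed with compound from a DMSO formulation. Percent kill was scored after 2 days.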
# Meloidogyne incognita = Meloidogyne incognita test; format: in vivo; settings: application rate 20 ppm, after 14 days, lettuce
# Description: Meloidogyne incognita Test Solvent: 125.0 parts by weight of acetone To produce a suitable active ingredient formulation, 1 part by weight of active ingredient is mixed with the stated amount of solvent and the concentrate is diluted with water to the desired concentration. Vessels are filled with sand, active ingredient solution, an egg/larvae suspension of the southern root-knot nematode (Meloidogyne incognita) and lettuce seeds. The lettuce seeds germinate and the plants develop. The galls develop on the roots. After 14 days, the nematicidal efficacy in % is determined by the formation of galls. 100% means that no galls were found; 0% means that the number of galls on the treated plants corresponds to the untreated control.
# Tetranychus urticae = Tetranychus urticae spray test, OP-resistant; format: in vivo; settings: application rate 500 g/ha, after 6 days, bean leaf discs
# Description: Tetranychus urticae—Spray Test, OP-Resistant
# Solvent: 78.0 parts by weight of acetone • • 1.5 parts by weight of dimethylformamide
# Emulsifier: alkylaryl polyglycol ether
# To produce a suitable active ingredient formulation, 1 part by weight of active ingredient is dissolved with the specified parts by weight of solvent and made up with water containing an emulsifier concentration of 1000 ppm until the desired concentration is attained. To produce further test concentrations, the formulation is diluted with emulsifier-containing water.
# Discs of bean leaves (Phaseolus vulgaris) infested with all stages of the greenhouse red spider mite (Tetranychus urticae) are sprayed with an active ingredient formulation of the desired concentration.
# After 6 days, the efficacy in % is determined. 100% means that all the spider mites have been killed; 0% means that no spider mites have been killed.
# [4] = acidic range pH 2.7, 0.1% aqueous formic acid and acetonitrile, reversed-phase column (C 18)
# [5] = log P, neutral range, HPLC on reversed-phase column (C 18)
# [6] = acidic range at pH 2.7, 0.1% aqueous formic acid and acetonitrile, HPLC on reversed-phase column (C 18)
SMILES,efficacy (fleas dead or moribund) (Ctenocephalides felis [1]) [%],efficacy (caterpillars killed) (Spodoptera frugiperda; application rate 100 g/ha) [%],efficacy (caterpillars killed) (Spodoptera frugiperda; application rate 500 g/ha) [%],efficacy (beetle larvae killed) (Phaedon cochleariae; application rate 100 g/ha) [%],efficacy (beetle larvae killed) (Phaedon cochleariae; application rate 500 g/ha) [%],"LOGP_HCOOH [2, 4]","LOGP_NEUTRAL [2, 5]",efficacy (kill in %) (Musca domestica; application rate 100 ppm) [%],efficacy (kill in %) (Lucilia cuprina) [%],efficacy (kill in %) (Ctenocephalides felis [3]) [%],nematicidal efficacy (formation of galls) (Meloidogyne incognita) [%],efficacy (spider mites killed) (Tetranychus urticae) [%],"pest or weed control at 500 g/ha (Spodoptera frugiperda; Spodoptera frugiperda, foliar, 168 h, application rate 500 g/ha, read-out: efficacy (caterpillars killed)) [%]","chromatographic logP ([2]; pH 2.7, log P (HCOOH), acidic range pH 2.7, 0.1% aqueous formic acid and acetonitrile, reversed-phase column (C 18), read-out: LOGP_HCOOH)","chromatographic logP ([2]; pH 7.8, LC-MS neutral range, pH 7.8, ammonium hydrogencarbonate/acetonitrile, read-out: log P (neutral))","pest or weed control at 100 ppm (Ctenocephalides felis [3]; Ctenocephalides felis, po, 48 h, read-out: efficacy (kill in %)) [%]","LOGP_HCOOH [2, 6]",efficacy (kill in %) (Musca domestica; application rate 20 ppm) [%],"LOGP_NEUTRAL ([2]; log P (neutral), HPLC reversed-phase column (C 18))"
O=C(NC1CC1)c1cc(-c2ccc(C(F)(F)F)cc2)cc(NC(=O)C2CC2)n1 [Example I-013],80,100,100,100,100,3.37,3.37,100,100,100,,,,,,,,,
N#CCNC(=O)c1cc(-c2ccc(C(F)(F)F)cc2)cc(NC(=O)C2CC2)n1 [Example I-025],,100,100,,100,3.05,3.01,,,98,100,,,,,,,,
"CN(C(=O)c1cc(-c2ccc(C(F)(F)F)cc2)cc(NC(=O)C2CC2)n1)C1CC1 [Example I-036, N-Cyclopropyl-6-[(cyclopropylcarbonyl)amino]-N-methyl-4-[4-(trifluoromethyl)phenyl]pyridine-2-carboxamide]",,,,,,,3.21,,,,,90,83,3.3,3.21,100,,,
C#CCNC(=O)c1cc(-c2ccc(C(F)(F)F)cc2)cc(NC(=O)C2CC2)n1 [Example I-038],,,83,100,83,3.34,3.25,,,,90,,,,,,,,
N#Cc1cccc(CCNC(=O)c2cc(-c3ccc(OC(F)(F)F)cc3)cc(NC(=O)C3CC3)n2)c1 [Example I-091],,100,100,,100,4.01,3.88,,100,95,,90,,,,,,,
O=C(NC1CC1)c1cc(-c2ccc(SC(F)(F)F)cc2)cc(NC(=O)C2CC2)n1 [Example I-105],,83,100,100,100,3.86,3.71,,,100,,100,,,,,,,
CCNC(=O)c1cc(-c2ccc(OC(F)(F)F)cc2)cc(NC(=O)C2CC2)n1 [Example I-118],100,100,100,100,100,,3.33,,,100,,,,,,,3.41,,
CC1(NC(=O)c2cc(-c3ccc(OC(F)(F)F)cc3)cc(NC(=O)C3CC3)n2)CC1 [Example I-128],100,100,100,100,100,,,,100,100,,,,,,,3.84,,
O=C(NC1CSC1)c1cc(-c2ccc(OC(F)(F)F)cc2)cc(NC(=O)C2CC2)n1 [Example I-162],100,100,100,100,100,,3.93,,,100,90,,,,,,3.88,,
COCCNC(=O)c1cc(-c2ccc(OC(F)(F)F)cc2)cc(NC(=O)C2CC2)n1 [Example I-177],,,,,,,3.26,,,,90,,,,,,3.29,,
N#Cc1ccc(CNC(=O)c2cc(-c3ccc(C(F)(F)C(F)(F)F)cc3)cc(NC(=O)C3CC3)n2)cc1 [Example I-182],,100,100,100,100,,4.07,,100,100,,90,,,,,4.24,,
N#CC1CCC(NC(=O)c2cc(-c3ccc(OC(F)(F)F)cc3)cc(NC(=O)C3CC3)n2)CC1 (centres unmarked) [Example I-197],100,100,100,83,100,,3.66,80,100,100,,,,,,,3.76,100,
O=C(NC1CC1(F)F)c1cc(-c2ccc(OC(F)(F)F)cc2)cc(NC(=O)C2CC2)n1 (centres unmarked) [Example I-216],100,100,100,100,100,,3.74,,80,100,,,,,,,3.85,,
O=C(NN=Cc1ccc(C(F)(F)F)c(F)c1)c1cc(-c2ccc(OC(F)(F)F)cc2)cc(NC(=O)C2CC2)n1 [Example I-257],,,100,,,4.72,,,,,90,,,,,,,,
O=C(NCc1ccc(N2CCCC2=O)cc1)c1cc(-c2ccc(OC(F)(F)F)cc2)cc(NC(=O)C2CC2)n1 [Example I-259],,,100,,83,3.55,,,,,90,,,,,,,,3.58
